According to patent publication US6242439A, “Azetidinone derivatives for the treatment of HCMV infections” (Boehringer Ingelheim (Canada) Ltd., priority 1998, dated 2001):
Like-named read-outs stand apart in the source and are kept apart here.

Experiments:
[1] = Cytotoxic effects, tetrazolium salt (MTT) metabolic assay; format: cell-based; details: read-out: TC50 (the source's name)
Procedure: In conjunction with the appropriate starting materials and intermediates, the procedures of examples 1 to 11 can be used to prepare other compounds of formula 1. Examples of compounds thus prepared are listed in the following Tables I, II and III together with mass spectrum data for the compounds, and results from the assays A and B of example 12. Cytotoxic effects noted as TC50 in the following tables were determined according to the tetrazolium salt (MTT) metabolic assay, F. Denizot and F. Lang, J. Immun. Meth., 1986, 89, 271.

[2] = test system: HCMV (strain AD169, ATCC VR-538); assay: Plaque Reduction Assay (PRA); format: cell-based, human cytomegalovirus (HCMV); details: Hs-68 cells, approximately 50 PFU HCMV AD169, 8 days at 37°
Procedure: B. Plaque Reduction Assay (PRA)
Hs-68 cells (ATCC #CRL 1635) were seeded in 12-well plates at 83,000 cells/well in 1 mL of DMEM medium (Gibco Canada Inc.) supplemented with 10% fetal bovine serum (FBS, Gibco Canada Inc.). The plates were incubated for 3 days at 37° to allow the cells to reach 80-90% confluency prior to the assay.
The medium was removed from the cells by aspiration. The cells were then infected with approximately 50 PFU of HCMV (strain AD169, ATCC VR-538) in DMEM medium supplemented with 5% inactivated FBS (assay medium). (DMEM medium is commercially available and has been described by R. Dulbecco et al., Virology 1959, 8, 396.) The virus was allowed to adsorb to cells for 2 h at 37°. Following viral adsorption, the medium was removed from the wells by aspiration. The cells were then incubated with or without 1 mL of appropriate concentrations of test reagent in assay medium. Occasionally, test compounds were added 24 h post-infection. After 4 days of incubation at 37°, the medium was exchanged with fresh medium containing test compound and 4 days later the cells were fixed with 1% aqueous formaldehyde and stained with a 2% violet solution in 20% ethanol in water. Microscopic plaques were counted using a stereomicroscope. Drug effects were calculated as a percent reduction in the number of plaques in the presence of each drug concentration compared to the number observed in the absence of drug. Ganciclovir was used as a positive control in all experiments.

HCMV NO protease = HCMV NO protease (Human cytomegalovirus, UniProt P16753); assay: HCMV NO Protease Assay (inhibition of cleavage of internally quenched fluorogenic peptide substrate); format: biochemical; details: 100 nM HCMV NO protease, 5 μM substrate, 2.5 h at 30°, pH 8
Procedure: This particular assay determines the ability of a test compound to inhibit the activity of HCMV protease. More specifically, in the assay described herein, the inhibitory activity of the test compound is evaluated on the basis of its ability to interfere with the HCMV No protease cleavage of a fluorogenic peptide substrate which in turn is based on the maturation cleavage site of the enzyme.
A. HCMV NO Protease Assay
Material & Methods: Fluorescence measurements were recorded on a Perkin-Elmer LS-50B spectrofluorimeter equipped with a plate reader accessory. UV measurements were recorded on a Thermomax® microplate reader from Molecular Devices Corporation, Menlo Park, Calif., USA.
HCMV NO protease was assayed with an internally quenched fluorogenic substrate based on the maturation cleavage site (Abz-[…](3-NO2)R--OH, kcat /KM =260 M^-1 s^-1). The fluorescence increase upon cleavage of the Ala-Ser amide bond was monitored using excitation λ=312 nm (slit 2.5 nm) and emission λ=415 nm (slit 5 nm). A protocol adaptable to a 96-well plate format was designed for the determination of IC50 values of inhibitors. […] After this period, enzymatic hydrolysis of the fluorogenic substrate in the absence of inhibitor led to about a 30% conversion. Quenching was not required before fluorescence measurement since the total scanning time by the plate reader accessory was brief relative to the duration of the reaction. The aqueous incubation buffer contained 50 mM tris(hydroxymethyl)aminomethane.HCl pH 8, 0.5M Na2 SO4, 50 mM NaCl, 0.1 mM EDTA, 1 mM tris(2-carboxyethyl)phosphine.HCl, 3% v/v DMSO and 0.05% w/v casein. The final concentrations of HCMV NO protease (expressed in terms of total monomer concentration) and substrate were 100 nM and 5 μM respectively. IC50 values were obtained through fitting of the inhibition curve to a competitive inhibition model using SAS NLIN procedure. The mode of inhibition was determined by measurements of the initial rates (in cuvettes) at various substrate concentrations in the buffer as described above. The IC50 values listed in the following tables the IC50 were obtained according to this assay.

[3] = Human betaherpesvirus 5, AD169, Hs68, 192 h, read-out: EC50

Sequence of HCMV NO protease (P16753 1-256): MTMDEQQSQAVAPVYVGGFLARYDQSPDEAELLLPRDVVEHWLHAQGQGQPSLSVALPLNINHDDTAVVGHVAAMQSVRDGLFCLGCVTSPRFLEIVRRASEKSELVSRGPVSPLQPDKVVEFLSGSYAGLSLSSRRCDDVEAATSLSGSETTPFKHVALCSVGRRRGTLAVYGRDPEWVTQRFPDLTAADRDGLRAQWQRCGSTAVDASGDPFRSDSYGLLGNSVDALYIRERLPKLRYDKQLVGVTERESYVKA

Compound	CC50 [1]	EC50 [2, 3]	IC50 (HCMV NO protease)	EC50 ([2]; read-out: EC50)	EC50 [2]
COC(=O)c1ccc(CN(C)C(=O)N2C(=O)C[C@@H]2Cc2ccccc2)cc1 [Entry 131]	> 250 µM	140 µM	2.5 µM		
CC(=O)Nc1ccc(CN(C)C(=O)N2C(=O)C[C@@H]2Cc2ccccc2)cc1 [Entry 132]	> 250 µM	150 µM	17 µM		
CN(Cc1cccc([N+](=O)[O-])c1)C(=O)N1C(=O)C[C@@H]1Cc1ccccc1 [Entry 133]	> 250 µM	170 µM	6.9 µM		
CC(C)c1ccc(CN(C)C(=O)N2C(=O)C[C@@H]2Cc2ccccc2)cc1 [Entry 134]	200 µM	150 µM	6.4 µM		
O=C1C[C@H](Cc2ccccc2)N1C(=O)NCc1ccncc1 [Entry 136, 4(S)-Benzyl-2-oxoazetidine-1-carboxylic acid (4-pyridinylmethyl) amide]	> 250 µM	> 250 µM	13 µM		
CN(Cc1ccc(SC(F)(F)F)cc1)C(=O)N1C(=O)C[C@@H]1Cc1ccccc1 [Entry 137]	> 250 µM	> 250 µM	6.9 µM		
CN(Cc1ccc(S(=O)(=O)C(F)(F)F)cc1)C(=O)N1C(=O)C[C@@H]1Cc1ccccc1 [Entry 139]	> 250 µM	> 250 µM	4.3 µM		
O=C1C[C@H](Cc2ccccc2)N1C(=O)NCc1cccnc1 [Entry 142]	> 250 µM	> 250 µM	9.7 µM		
CN(Cc1ccc(C#N)cc1)C(=O)N1C(=O)C[C@@H]1Cc1ccccc1 [Entry 145]	> 250 µM	120 µM	6.1 µM		
C[C@@H]1C(=O)N(C(=O)Nc2ccccc2)[C@H]1Cc1ccccc1 [Entry 203]	> 250 µM	> 250 µM	0.81 µM		
C[C@@H]1C(=O)N(C(=O)Nc2ccncc2)[C@H]1Cc1ccccc1 [Entry 204]	> 250 µM	205 µM	0.97 µM		
C[C@@H]1C(=O)N(C(=O)NCc2ccccc2)[C@H]1Cc1ccccc1 [Entry 207, 4(S)-Benzyl-3(S)-methyl-2-oxoazetidine-1-carboxylic acid benzylamide]	> 250 µM	140 µM	5.3 µM		
C[C@@H]1C(=O)N(C(=O)N(C)Cc2ccccc2)[C@H]1Cc1ccccc1 [Entry 208]	> 250 µM	150 µM	4.2 µM		
CC[C@@H](NC(=O)N1C(=O)[C@@H](SC)[C@@H]1Cc1ccccc1)c1ccccc1 [Entry 209, 4(S)-Benzyl-3(S)-(methylthio)-2-oxoazetidine-1-carboxylic acid (1(R)-phenylpropyl)amide]	> 250 µM	27 µM	4.7 µM		
O=C1C[C@H](Cc2ccc(I)cc2)N1C(=O)NCc1ccncc1 [Entry 211]	> 100 µM	> 100 µM	8.6 µM		
CC[C@@H](NC(=O)N1C(=O)C[C@@H]1CCc1ccccc1)c1ccccc1 [Entry 212]	> 250 µM	140 µM	4.3 µM		

Compound	CC50 [1]	EC50 [2, 3]	IC50 (HCMV NO protease)	EC50 ([2]; read-out: EC50)	EC50 [2]
CC[C@@H](NC(=O)N1C(=O)C[C@@H]1C(C)C)c1ccccc1 [Entry 213]	> 250 µM	210 µM	5.9 µM		
CC[C@H]1CC(=O)N1C(=O)N[C@H](CC)c1ccccc1 [Entry 214]	> 250 µM	180 µM	7.6 µM		
CC[C@@H](C)[C@H]1CC(=O)N1C(=O)N[C@H](CC)c1ccccc1 [Entry 216]	> 250 µM	110 µM	4.4 µM		
CC[C@@H](NC(=O)N1C(=O)C[C@@H]1[C@@H](C)CC)c1ccccc1 [Entry 217]	> 250 µM	85 µM	11 µM		
CN(Cc1ccc(C(F)(F)F)cc1)C(=O)N1C(=O)C[C@@H]1Cc1nccs1 [Entry 218, 4(R)-(2-Thiazolylmethyl)-2-oxoazetidine-1-carboxylic acid N-methyl-N-{{(4-trifluoromethyl)phenyl}methyl}amide]	178 µM		5.5 µM	78 µM	
CN(Cc1ccc(C(F)(F)F)cc1)C(=O)N1C(=O)C[C@@H]1Cc1nc2ccccc2s1 [Entry 219]	> 250 µM	110 µM	0.88 µM		
CN(Cc1ccc(C(F)(F)F)cc1)C(=O)N1C(=O)C[C@@H]1Cc1ccco1 [Entry 221]	> 100 µM	59 µM	7.1 µM		
CC[C@@H](NC(=O)N1C(=O)C[C@@H]1Cc1nnn(C)n1)c1ccccc1 [Entry 222]	> 148 µM	125 µM	5 µM		
CN(Cc1ccc([N+](=O)[O-])cc1)C(=O)N1C(=O)C[C@@H]1Cc1nnn(C)n1 [Entry 224]	> 133 µM	100 µM	2.7 µM		
CN(Cc1ccc([N+](=O)[O-])cc1)C(=O)N1C(=O)C[C@@H]1Cc1nc2ccccc2s1 [Entry 225]	> 50 µM	30 µM	0.7 µM		
CN(Cc1ccc([N+](=O)[O-])cc1)C(=O)N1C(=O)C[C@@H]1Cc1cccs1 [Entry 226]	> 79 µM	70 µM	1.3 µM		
CN(Cc1ccc([N+](=O)[O-])cc1)C(=O)N1C(=O)C[C@@H]1Cc1nccs1 [Entry 227]	> 29 µM	> 29 µM	2.5 µM		
CN(Cc1ccc(C(F)(F)F)cc1)C(=O)N1C(=O)C[C@@H]1Cc1cccs1 [Entry 228]	> 16 µM	> 16 µM	4.5 µM		
CN(Cc1ccc([N+](=O)[O-])cc1)C(=O)N1C(=O)C[C@@H]1Cc1ccco1 [Entry 229]	> 261 µM	143 µM	3.1 µM		
CN(Cc1ccc(C(F)(F)F)cc1)C(=O)N1C(=O)C[C@@H]1Cc1nccs1 [Entry 231]	> 25 µM		2.7 µM		11 µM
